*1 amine or outer side, *2 acyl side, *3 side chain or, on linkers, in order; H or OH if unused. Where a SMILES comes first, the peptide text is derived from it. Side-chain parts run from the residue outwards. [ ]: non-standard residue; d: D form. The star is where a group is joined. C20 diacid = O=C(O)CCCCCCCCCCCCCCCCCCC(=O)*; γGlu = O=C(O)[C@H](CCC(=O)[*:2])N[*:1]; εLys = N[C@@H](CCCCN[*:1])C(=O)[*:2]; NMeI = CC[C@H](C)[C@H](NC)C(=O)O; αMeL = CC(C)C[C@](C)(N)C(=O)O; AEEA = NCCOCCOCC(=O)O; Aib = CC(C)(N)C(=O)O
Legend:
human CRHR2 = target: T1, human CRHR2 (Homo sapiens, UniProt Q13324); test: Human CRHR2 cAMP assay (HTRF) in HEK293 cells stably expressing human CRHR2; format: cell-based; settings: HEK293 cells overexpressing human CRHR2; relative EC50, maximum 10 nM human UCN2; mean ± SE; read-out: hCRHR2 cAMP EC50 (pM, ± SE)
T1 construct: expressed in transfected cells
T1 sequence (Q13324 1-438 isoform Q13324-2): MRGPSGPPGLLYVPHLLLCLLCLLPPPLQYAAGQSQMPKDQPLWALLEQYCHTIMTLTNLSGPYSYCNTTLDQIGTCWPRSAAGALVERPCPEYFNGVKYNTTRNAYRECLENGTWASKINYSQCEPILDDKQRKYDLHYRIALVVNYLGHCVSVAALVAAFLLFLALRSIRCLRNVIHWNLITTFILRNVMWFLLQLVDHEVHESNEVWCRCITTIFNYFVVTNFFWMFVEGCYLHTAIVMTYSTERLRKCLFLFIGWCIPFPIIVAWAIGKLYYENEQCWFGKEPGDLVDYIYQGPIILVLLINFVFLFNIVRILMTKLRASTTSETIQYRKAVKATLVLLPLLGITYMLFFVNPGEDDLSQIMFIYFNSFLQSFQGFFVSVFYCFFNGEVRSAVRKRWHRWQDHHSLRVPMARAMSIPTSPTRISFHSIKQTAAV
How it was run: (§1)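 Stably expressing HEK293 clones received peptide concentration series in phosphodiesterase-inhibited buffer (0.25 mM IBMX, pH 7.4). After receptor-specific incubation (CRHR1 1 h at 37° C; CRHR2 30 min at room temperature), cells were lysed with HTRF cAMP reagents for 60 min and the 665/620 nm ratio recorded.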

human CRHR1 = target: T2, human CRHR1 (Homo sapiens, UniProt P34998); test: Human CRHR1 cAMP assay (HTRF) in HEK293 cells stably expressing human CRHR1; format: cell-based; settings: HEK293 cells overexpressing human CRHR1; relative EC50, maximum 66 nM human UCN1; mean ± SE; read-out: hCRHR1 cAMP EC50 (pM, ± SE)
T2 construct: expressed in transfected cells
T2 sequence (P34998 24-415): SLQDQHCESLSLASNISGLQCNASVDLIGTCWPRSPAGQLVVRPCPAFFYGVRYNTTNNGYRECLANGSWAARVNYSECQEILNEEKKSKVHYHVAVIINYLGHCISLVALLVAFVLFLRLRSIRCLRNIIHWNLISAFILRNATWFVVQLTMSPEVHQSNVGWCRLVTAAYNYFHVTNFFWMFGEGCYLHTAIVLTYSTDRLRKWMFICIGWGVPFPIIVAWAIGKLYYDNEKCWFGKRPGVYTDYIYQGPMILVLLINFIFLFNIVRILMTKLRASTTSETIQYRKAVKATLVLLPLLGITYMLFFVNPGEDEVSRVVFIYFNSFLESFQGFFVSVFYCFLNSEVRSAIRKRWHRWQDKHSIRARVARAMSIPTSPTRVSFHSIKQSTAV
How it was run: as §1

Row | Molecule | EC50 (human CRHR2) [pM] | EC50 (human CRHR1) [pM]
1 | CC[C@H](C)[C@H](NC)C(=O)N[C@H](C(=O)N[C@@H](CC(C)C)C(=O)N[C@@H](CO)C(=O)N[C@@H](CC(C)C)C(=O)N[C@@H](CC(=O)O)C(=O)N[C@H](C(=O)N1CCC[C@H]1C(=O)N[C@H](C(=O)NCC(=O)N[C@@H](CC(C)C)C(=O)N[C@@H](CC(C)C)C(=O)N[C@@H](CCC(N)=O)C(=O)N[C@H](C(=O)N[C@@H](CC(C)C)C(=O)N[C@@H](CC(C)C)C(=O)N[C@@H](CCC(=O)O)C(=O)N[C@@H](CCC(N)=O)C(=O)N[C@@H](CCC(=O)O)C(=O)N[C@@H](CCCCN)C(=O)N[C@@H](CCC(N)=O)C(=O)N[C@@H](CCC(=O)O)C(=O)N[C@@H](CCCCN)C(=O)N[C@@H](CCC(=O)O)C(=O)N[C@@H](CCCCN)C(=O)N[C@@H](CCC(N)=O)C(=O)N[C@@H](CCC(N)=O)C(=O)N[C@@H](C)C(=O)N[C@@H](CCCCNC(=O)COCCOCCNC(=O)COCCOCCNC(=O)CC[C@H](NC(=O)CC[C@H](NC(=O)CCCCCCCCCCCCCCCCCCC(=O)O)C(=O)O)C(=O)O)C(=O)N[C@H](C(=O)N[C@@H](CC(N)=O)C(=O)N[C@@H](C)C(=O)N[C@@H](CCC(N)=O)C(=O)N[C@H](C(=O)N[C@@H](CC(C)C)C(=O)N[C@@H](C)C(=O)N[C@@H](CCC(N)=O)C(=O)N[C@H](C(N)=O)C(C)C)[C@@H](C)CC)[C@@H](C)O)[C@@H](C)CC)[C@@H](C)CC)C(C)C)C(C)C [SEQ ID NO: 54] (H-[NMeI]VLSLDVPIGLLQILLEQEKQEKEKQQAK([AEEA-AEEA-γGlu-γGlu-C20 diacid])TNAQILAQV-NH2) | 29.8 ± 2.5 | > 1e+07
2 | CC[C@H](C)[C@H](NC)C(=O)N[C@H](C(=O)N[C@H](C(=O)N[C@@H](CO)C(=O)N[C@@H](CC(C)C)C(=O)N[C@@H](CC(=O)O)C(=O)N[C@H](C(=O)N1CCC[C@H]1C(=O)N[C@H](C(=O)NCC(=O)N[C@@](C)(CC(C)C)C(=O)N[C@@H](CC(C)C)C(=O)N[C@@H](CCC(N)=O)C(=O)N[C@@H](CCCCN)C(=O)N[C@@H](CC(C)C)C(=O)N[C@H](C(=O)N[C@@H](CCC(=O)O)C(=O)N[C@@H](CCC(N)=O)C(=O)N[C@@H](CCC(=O)O)C(=O)N[C@@H](CCCCN)C(=O)N[C@@H](CCC(N)=O)C(=O)N[C@@H](CCC(=O)O)C(=O)N[C@@H](CCCCN)C(=O)N[C@@H](CCC(=O)O)C(=O)N[C@@H](CCCCN)C(=O)N[C@@H](CCC(N)=O)C(=O)N[C@@H](CCC(N)=O)C(=O)N[C@@H](C)C(=O)N[C@@H](CCCCNC(=O)COCCOCCNC(=O)COCCOCCNC(=O)CC[C@H](NC(=O)CCCCCCCCCCCCCCCCCCC(=O)O)C(=O)O)C(=O)N[C@@H](CCC(=O)O)C(=O)N[C@@H](CC(N)=O)C(=O)N[C@H](C(=O)N[C@@H](CCC(=O)O)C(=O)N[C@H](C(=O)N[C@@H](CC(C)C)C(=O)N[C@@H](C)C(=O)N[C@@H](CCC(N)=O)C(=O)N[C@H](C(N)=O)C(C)C)[C@@H](C)CC)[C@@H](C)O)[C@@H](C)CC)[C@@H](C)CC)C(C)C)[C@@H](C)O)C(C)C [SEQ ID NO: 49, (NMeI) VTSLDVPIG αMeL LQKLIEQEKQEKEKQQAK((2-[2-(2-Amino-ethoxy)-ethoxy]-acetyl)2-γE-CO-(CH2)18-CO2H)ENTEILAQV-NH2] (H-[NMeI]VTSLDVPIG[αMeL]LQKLIEQEKQEKEKQQAK([AEEA-AEEA-γGlu-C20 diacid])ENTEILAQV-NH2) | 6.6 ± 0.9 | > 1e+07
3 | CC[C@H](C)[C@H](NC)C(=O)N[C@H](C(=O)N[C@H](C(=O)N[C@@H](CO)C(=O)N[C@@H](CC(C)C)C(=O)N[C@@H](CC(=O)O)C(=O)N[C@H](C(=O)N1CCC[C@H]1C(=O)N[C@H](C(=O)NCC(=O)N[C@@](C)(CC(C)C)C(=O)N[C@@H](CC(C)C)C(=O)N[C@@H](CCC(N)=O)C(=O)N[C@@H](CCCCN)C(=O)N[C@@H](CC(C)C)C(=O)N[C@@H](CC(C)C)C(=O)N[C@@H](CCC(=O)O)C(=O)N[C@@H](CCC(N)=O)C(=O)N[C@@H](CCC(=O)O)C(=O)N[C@@H](CCCNC(=N)N)C(=O)N[C@@H](C)C(=O)N[C@@H](CCC(=O)O)C(=O)N[C@@H](CCCCN)C(=O)N[C@@H](C)C(=O)N[C@@H](CCCNC(=N)N)C(=O)N[C@@H](CCC(N)=O)C(=O)N[C@@H](CCC(N)=O)C(=O)N[C@@H](C)C(=O)N[C@@H](CCCCNC(=O)COCCOCCNC(=O)COCCOCCNC(=O)CC[C@H](NC(=O)CCCCCCCCCCCCCCCCCCC(=O)O)C(=O)O)C(=O)N[C@@H](CCC(=O)O)C(=O)N[C@@H](C)C(=O)N[C@@H](C)C(=O)N[C@@H](CCC(=O)O)C(=O)N[C@H](C(=O)N[C@@H](CC(C)C)C(=O)N[C@@H](C)C(=O)N[C@@H](CCC(N)=O)C(=O)N[C@H](C(N)=O)C(C)C)[C@@H](C)CC)[C@@H](C)CC)C(C)C)[C@@H](C)O)C(C)C [SEQ ID NO: 50, (NMeI) VTSLDVPIG αMeL LQKLLEQERAEKARQQAK((2-[2-(2-Amino-ethoxy)-ethoxy]-acetyl)2-γE-CO-(CH2)18-CO2H)EAAEILAQV-NH2] (H-[NMeI]VTSLDVPIG[αMeL]LQKLLEQERAEKARQQAK([AEEA-AEEA-γGlu-C20 diacid])EAAEILAQV-NH2) | 22.4 ± 3.6 | > 1e+07
4 | CC[C@H](C)[C@H](NC(C)=O)C(=O)N[C@H](C(=O)N[C@H](C(=O)N[C@@H](CO)C(=O)N[C@@](C)(CC(C)C)C(=O)N[C@@H](CC(=O)O)C(=O)N[C@@H](C(=O)N1CCC[C@H]1C(=O)N[C@H](C(=O)NCC(=O)N[C@@](C)(CC(C)C)C(=O)N[C@@H](CC(C)C)C(=O)N[C@@H](CCC(N)=O)C(=O)N[C@H](C(=O)N[C@@H](CCCCN)C(=O)N[C@@H](CC(C)C)C(=O)N[C@@H](CCC(=O)O)C(=O)N[C@@H](CCC(N)=O)C(=O)N[C@@H](CCC(=O)O)C(=O)N[C@@H](CCCNC(=N)N)C(=O)N[C@@H](C)C(=O)N[C@@H](CCC(=O)O)C(=O)N[C@@H](CCCCN)C(=O)N[C@@H](C)C(=O)N[C@@H](CCCNC(=N)N)C(=O)N[C@@H](CCC(N)=O)C(=O)N[C@@H](CCC(N)=O)C(=O)N[C@@H](C)C(=O)N[C@@H](CCCCNC(=O)COCCOCCNC(=O)COCCOCCNC(=O)CC[C@H](NC(=O)CCCCCCCCCCCCCCCCCCC(=O)O)C(=O)O)C(=O)N[C@@H](CCC(=O)O)C(=O)N[C@@H](CC(N)=O)C(=O)N[C@H](C(=O)N[C@@H](CCC(=O)O)C(=O)N[C@H](C(=O)N[C@@H](CC(C)C)C(=O)N[C@@H](C)C(=O)N[C@@H](CCC(N)=O)C(=O)N[C@H](C(N)=O)C(C)C)[C@@H](C)CC)[C@@H](C)O)[C@@H](C)CC)[C@@H](C)O)C(C)C)[C@@H](C)O)C(C)C [SEQ ID NO: 29, Ac-IVTS αMeL D (D-Val) PTG αMeL LQIKLEQERAEKARQ QAK((2-[2-(2-Amino-ethoxy)-ethoxy]-acetyl)2-γE-CO-(CH2)18-CO2H)ENTEILAQV-NH2] (Ac-IVTS[αMeL]D[dV]PTG[αMeL]LQIKLEQERAEKARQQAK([AEEA-AEEA-γGlu-C20 diacid])ENTEILAQV-NH2) | 5.6 ± 0.4 | > 1e+07
5 | Ac-PPPIVTS[αMeL]DVPT[Aib][αMeL]LQKLLEQERAEKARQQAK([γGlu-AEEA-εLys-C20 diacid])EAAEILAQV-NH2 [SEQ ID NO: 48, Ac-PPPIVTS αMeL DVPT Aib αMeL LQKLLEQERAEKARQQAK(γE-(2-[2-(2-Amino-ethoxy)-ethoxy]-acetyl)-ϵK-CO-(CH2)18-CO2H)EAAEILAQV-NH2] | 26.7 ± 3.8 | > 1e+07
6 | {C20 diacid-εLys-AEEA-γGlu}-GSPSIVTS[αMeL]DVPT[Aib][αMeL]LQKILEQERAEKARQQATEAAEILAQV-NH2 [SEQ ID NO: 25] | 6.9 ± 0.5 | > 1e+07

— patent publication US20250163119A1, “COMPOUNDS FOR THE TREATMENT OF DIABETES OR OBESITY” (Eli Lilly and Company, priority 2023, published 2025)
